{"source": "patent US9285322B2", "about": "“pH modulation methods and systems for detecting binding events” (The Texas A&M University System, priority 2010, dated 2016)", "key": {"different kinases": {"system": "different kinases", "details": "cited from earlier work"}, "calmodulin [1]": {"target": "T1, calmodulin (Homo sapiens, UniProt P0DP23)", "details": "read-out: equilibrium dissociation constant; cited from earlier work"}, "calmodulin [2]": {"target": "T1, calmodulin", "details": "1 M CaCl2, 66 μM dye-conjugated calmodulin, 10 mM Tris, 100 mM NaCl, pH 7.4"}, "avidin [3]": {"target": "T2, avidin (Gallus gallus, UniProt P02701)", "T2 sequence (P02701 25-152)": "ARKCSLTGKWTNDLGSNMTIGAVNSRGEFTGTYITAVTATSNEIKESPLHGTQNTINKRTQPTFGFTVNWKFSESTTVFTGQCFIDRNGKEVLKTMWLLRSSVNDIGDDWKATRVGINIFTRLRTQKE", "assay": "homogeneous biotin detection with ortho-TEXAS RED-conjugated avidin in microfluidic channels", "assay_type": "binding", "details": "200 μM biotin, 10 μM ortho-TEXAS RED-conjugated avidin, PBS, pH 8.2"}, "avidin [4]": {"target": "T2, avidin", "assay": "protein-protein interaction assay: labeled avidin with biotinylated BSA in two parallel microfluidic channels", "assay_type": "binding"}, "[5]": {"target": "biotinylated bovine serum albumin (bovine) (UniProt P02769)", "sequence (P02769 25-607 limits assumed)": "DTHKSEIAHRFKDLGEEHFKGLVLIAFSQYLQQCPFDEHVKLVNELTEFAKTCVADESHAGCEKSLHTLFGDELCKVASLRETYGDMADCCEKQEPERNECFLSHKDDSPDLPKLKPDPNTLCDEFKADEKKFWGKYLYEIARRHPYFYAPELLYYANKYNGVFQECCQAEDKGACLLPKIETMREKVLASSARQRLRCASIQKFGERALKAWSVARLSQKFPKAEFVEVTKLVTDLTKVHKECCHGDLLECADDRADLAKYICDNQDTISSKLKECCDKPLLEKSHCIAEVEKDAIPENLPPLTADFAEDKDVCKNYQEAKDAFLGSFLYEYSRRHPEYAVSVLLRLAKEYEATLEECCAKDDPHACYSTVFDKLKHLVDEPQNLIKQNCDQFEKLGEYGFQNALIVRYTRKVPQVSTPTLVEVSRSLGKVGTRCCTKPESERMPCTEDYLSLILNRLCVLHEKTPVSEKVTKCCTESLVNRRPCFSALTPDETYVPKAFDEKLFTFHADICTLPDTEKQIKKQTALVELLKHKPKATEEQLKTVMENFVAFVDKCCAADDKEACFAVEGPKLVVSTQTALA", "assay": "homogeneous pH modulation fluorescence assay in two parallel microfluidic channels; 3 uM labeled avidin, 500 nM biotinylated BSA, 150 mM NaCl, 10 mM PBS, pH 7.0"}}}
{"compound": "Nc1ncnc2c1ncn2[C@@H]1O[C@H](COP(=O)(O)OP(=O)(O)OP(=O)(O)O)[C@@H](O)[C@H]1O", "note": "[ATP, adenosine triphosphate]", "values": [{"measurement": "affinities of different kinases for ATP", "setting": "different kinases", "value": "tens of nanomolar to hundreds of micromolar"}]}
{"compound": "[Ca+2].[Cl-].[Cl-]", "note": "[Ca^2+, calcium chloride]", "values": [{"measurement": "Kd", "setting": "calmodulin [1]", "value": 14, "unit": "µM"}, {"measurement": "attenuation in fluorescence intensity (factor) when Ca2+ is present", "setting": "calmodulin [2]", "value": "two"}]}
{"compound": "O=C(O)CCCC[C@@H]1SC[C@@H]2NC(=O)N[C@@H]21", "note": "[biotin]", "values": [{"measurement": "fluorescence intensity increase (factor) when biotin was present", "setting": "avidin [3]", "value": "six"}]}
{"compound": "biotinylated BSA: biotinylated bovine serum albumin", "values": [{"measurement": "signal in channel with biotinylated BSA relative to channel without (times brighter)", "setting": "avidin [4]; 500 nM biotinylated BSA, 3 μM ortho-TEXAS RED succinimidyl ester labeled avidin, 150 mM NaCl, 10 mM PBS, pH 7.0", "value": "approximately eight"}]}
{"compound": "ortho-TEXAS RED succinimidyl ester labeled avidin (from UniProt P02701 25-152)", "values": [{"measurement": "fluorescence intensity with biotinylated BSA relative to the channel without it", "setting": "[5]", "value": 8, "unit": "fold"}]}
{"compound": "para-sulforhodamine 101 [para-TEXAS RED®]", "values": [{"measurement": "fluorescence difference between channels with and without biotinylated BSA, control dye", "setting": "avidin [4]; control with para-TEXAS RED under identical conditions (500 nM biotinylated BSA, pH 7.0)", "value": "no difference between the two channels"}]}
